For two molecules, solubility results are on record in patent publication US6514953B1, “Calcium (3S) tetrahydro-3-furanyl(1S,2R)-3-[[(4-aminophenyl)sulfonyl](isobutyl)amino]-1-benzyl-2-(phosphonooxy)propylcarbamate” (SmithKline Beecham Corporation, priority 1998, dated 2003).

This series can be described thus: physchem.

Values after ≈ are worked out from the molar mass of the structure shown.

Consider `CC(C)CN(C[C@@H](O)[C@H](Cc1ccccc1)NC(=O)O[C@H]1CCOC1)S(=O)(=O)c1ccc(N)cc1` (relative stereo) [amprenavir, [3S-[3R*(1R*,2S*)]]-[3-[[(4-aminophenyl)sulfonyl](2-methyl-propyl)amino]-2-hydroxy-1-phenylmethyl)propyl]-tetrahydro-3-furanyl ester, reference compound], for which the solubility by setting is: (0.1N HCl, pH 1, simulated gastric fluid) 290 µg/mL (≈ 574 µM); (aqueous solution, pH 6.3, aqueous buffer) 95 µg/mL (≈ 188 µM).
Regarding `CC(C)CN(C[C@@H](OP(=O)([O-])[O-])[C@H](Cc1ccccc1)NC(=O)O[C@H]1CCOC1)S(=O)(=O)c1ccc(N)cc1.[Ca+2]` [compound of formula (I), calcium (3S) tetrahydro-3-furanyl (1S,2R)-3-[[(4-aminophenyl)sulfonyl](isobutyl)amino]-1-benzyl-2-(phosphonooxy)propylcarbamate], the solubility reads like this: (pH 1.47, simulated gastric fluid) 3200 µg/mL; (pH 3.27, aqueous buffer) 61100 µg/mL; (pH 4.11, aqueous buffer) 9410 µg/mL; (pH 5.02, aqueous buffer) 3200 µg/mL; (pH 6.27, aqueous buffer) 531 µg/mL.
